Reference: the NIST ThermoML archive (doi:10.1021/je201010s)
Numbers after ± are expanded uncertainties.

Tests used:
[1] = refractive index (Na D-line) (dimensionless); wn = mass fraction of the nth substance listed; settings: 101 kPa, Liquid, Standard Abbe refractometry
[2] = wn = mass fraction of the nth substance listed; settings: 101 kPa, Liquid, Vibrating tube method
[3] = refractive index (Na D-line) (dimensionless); settings: 101.33 kPa, Liquid, Standard Abbe refractometry
[4] = 101 kPa, Liquid, Vibrating tube method

CCCCn1cc[n+](C)c1.F[B-](F)(F)F [1-butyl-3-methylimidazolium tetrafluoroborate] + O
298.15 K
Settings | mass density, [2] [kg/m3] | refractive index, [1]
w2 = 0 | 1202.87 ± 1.8 | 1.422 ± 0.0013
w2 = 0.0098 | 1199.53 ± 1.8 | 1.4206 ± 0.0013
w2 = 0.0167 | 1196.97 ± 1.8 | 1.4194 ± 0.0013
w2 = 0.0205 | 1195.79 ± 1.8 | 1.4191 ± 0.0013
w2 = 0.029 | 1193.14 ± 1.8 | 1.418 ± 0.0013
w2 = 0.0396 | 1189.89 ± 1.8 | 1.4169 ± 0.0013
w2 = 0.0585 | 1184.23 ± 1.8 | 1.4141 ± 0.0013
w2 = 0.0982 | 1173.48 ± 1.8 | 1.4094 ± 0.0013
w2 = 0.154 | 1159.29 ± 1.8 | 1.4033 ± 0.0013
w2 = 0.2046 | 1147.24 ± 1.8 | 1.398 ± 0.0013
w2 = 0.2517 | 1136.64 ± 1.8 | 1.3934 ± 0.0012
w2 = 0.3043 | 1125.12 ± 1.8 | 1.3883 ± 0.0012
w2 = 0.3966 | 1106.01 ± 1.8 | 1.3801 ± 0.0012
w2 = 0.5061 | 1084.29 ± 1.8 | 1.3705 ± 0.0012
w2 = 0.6986 | 1048.69 ± 1.8 | 1.3549 ± 0.0012
w2 = 0.8897 | 1015.75 ± 1.8 | 1.3406 ± 0.0012

O [water] + CC(C)O
Settings | refractive index
[1], 298.15 K, w2 = 0 | 1.3325 ± 0.0012

O [water]
Settings | refractive index
[3], 298.15 K | 1.3325 ± 0.0012

CC(C)O [propan-2-ol] + O
298.15 K
Settings | mass density, [2] [kg/m3] | refractive index, [1]
w1 = 0.048 | – | 1.3365 ± 0.0012
w1 = 0.0915 | 982.05 ± 1 | –
w1 = 0.0987 | – | 1.3412 ± 0.0012
w1 = 0.1446 | – | 1.3458 ± 0.0012
w1 = 0.2009 | – | 1.3502 ± 0.0012
w1 = 0.2131 | 960.29 ± 1 | –
w1 = 0.241 | – | 1.3536 ± 0.0012
w1 = 0.2951 | – | 1.3569 ± 0.0012
w1 = 0.3299 | 936.93 ± 1 | –
w1 = 0.3387 | – | 1.3597 ± 0.0012
w1 = 0.3921 | – | 1.3622 ± 0.0012
w1 = 0.4412 | – | 1.3645 ± 0.0012
w1 = 0.4795 | 906.69 ± 1 | –
w1 = 0.4805 | – | 1.366 ± 0.0012
w1 = 0.5009 | 901.31 ± 1 | –
w1 = 0.5386 | – | 1.3681 ± 0.0012
w1 = 0.618 | 874.45 ± 1 | –
w1 = 0.6205 | – | 1.3707 ± 0.0012
w1 = 0.6337 | – | 1.3711 ± 0.0012
w1 = 0.6782 | – | 1.3722 ± 0.0012
w1 = 0.684 | 858.73 ± 1 | –
w1 = 0.7452 | – | 1.3737 ± 0.0012
w1 = 0.7861 | – | 1.3744 ± 0.0012
w1 = 0.7874 | 834.01 ± 1 | –
w1 = 0.8541 | – | 1.3752 ± 0.0012
w1 = 0.8788 | 811.99 ± 1 | –
w1 = 0.8959 | – | 1.3756 ± 0.0012
w1 = 0.8976 | 807.44 ± 1 | –
w1 = 0.9154 | 803.01 ± 1 | –
w1 = 0.9311 | 799.05 ± 1 | –
w1 = 0.9492 | – | 1.3756 ± 0.0012
w1 = 0.9502 | 794.22 ± 1 | –
w1 = 0.9752 | 787.71 ± 1 | –
w1 = 0.9895 | 783.8 ± 1 | –
w1 = 1 | 780.82 ± 1 | 1.3751 ± 0.0012

CCCCn1cc[n+](C)c1.F[B-](F)(F)F [1-butyl-3-methylimidazolium tetrafluoroborate] + CC(C)O
323.15 K
Settings | mass density, [2] [kg/m3] | refractive index, [1]
w2 = 0 | 1185.11 ± 6 | 1.4155 ± 0.002
w2 = 0.0089 | 1180.38 ± 6 | 1.4152 ± 0.002
w2 = 0.0287 | 1170.07 ± 6 | 1.4143 ± 0.002
w2 = 0.0624 | 1147.36 ± 6 | 1.4122 ± 0.002
w2 = 0.1053 | 1122.14 ± 6 | 1.4106 ± 0.002
w2 = 0.1649 | 1091.32 ± 6 | 1.4077 ± 0.002
w2 = 0.2183 | 1061.8 ± 6 | 1.4071 ± 0.002
w2 = 0.2719 | 1031.58 ± 6 | 1.406 ± 0.002
w2 = 0.324 | 1012 ± 6 | 1.403 ± 0.002
w2 = 0.4108 | 973.34 ± 6 | 1.3989 ± 0.002
w2 = 0.5167 | 927.14 ± 6 | 1.3948 ± 0.002
w2 = 0.5965 | 901.85 ± 6 | 1.391 ± 0.002
w2 = 0.6194 | 888.84 ± 6 | 1.3904 ± 0.002
w2 = 0.7697 | 835.46 ± 6 | 1.3817 ± 0.002
w2 = 0.8372 | 809.26 ± 6 | 1.3749 ± 0.002
w2 = 0.9344 | 778.75 ± 6 | 1.3668 ± 0.002

CC(C)O [propan-2-ol] + CCCCn1cc[n+](C)c1.F[B-](F)(F)F
323.15 K, w1 = 1
Settings | mass density [kg/m3] | refractive index
[1] | – | 1.3604 ± 0.002
[2] | 758.67 ± 6 | –

CC(C)O [propan-2-ol]
Settings | mass density, [4] [kg/m3] | refractive index, [3]
298.15 K | 780.82 ± 1 | 1.3751 ± 0.0012
323.15 K | 758.67 ± 6 | 1.3604 ± 0.002

O [water] + CCCCn1cc[n+](C)c1.F[B-](F)(F)F
Settings | refractive index
[1], 298.15 K, w1 = 1 | 1.3325 ± 0.0012

CCCCn1cc[n+](C)c1.F[B-](F)(F)F [1-butyl-3-methylimidazolium tetrafluoroborate]
Settings | mass density, [4] [kg/m3] | refractive index, [3]
298.15 K | 1202.87 ± 1.8 | 1.422 ± 0.0013
323.15 K | 1185.11 ± 6 | 1.4155 ± 0.002
